Assays:
[1] = target: PDE4B (Homo sapiens, UniProt Q07343); test: in vitro enzyme assay PDE4B (Table 7); format: biochemical; details: 2 micromolar compound; read-out: percent of PDE activity present, PDE4B
[2] = target: PDE4D (Homo sapiens, UniProt Q08499); test: in vitro enzyme assay PDE4D (Table 7); format: biochemical; details: 2 micromolar compound; read-out: percent of PDE activity present, PDE4D
[3] = target: PDE4A (Homo sapiens, UniProt P27815); test: in vitro enzyme assay PDE4A (Table 7); format: biochemical; details: 2 micromolar compound; read-out: percent of PDE activity present, PDE4A
[4] = target: T1, PDE7A (Homo sapiens, UniProt Q13946); test: in vitro enzyme assay PDE7A; format: biochemical; set-up: made in house; host or cells: E. coli; details: 2 micromolar compound; read-out: percent of PDE activity present, PDE7A
[5] = target: T2, PDE4D2-CAT (Homo sapiens, UniProt Q08499); test: in vitro enzyme assay, catalytic fragment of PDE4D2 (residues 86-413); format: biochemical
T2 construct: 86-413; made in house; host or cells: E. coli

[6] = target: T3, PDE4A1 (Mus musculus, UniProt O89084); test: 5FOA growth assay (high throughput screen, ED50) in fission yeast strain expressing PDE4A1; format: cell-based; details: high throughput 5FOA growth screen; greater than 8.53 = statistically-significant inhibitor
T3 construct: targets used in the assays are full-length proteins (as opposed to simply the catalytic domain); expressed in transfected cells; host or cells: Schizosaccharomyces pombe, PDE gene integrated in place of cgs2
T3 sequence (O89084 1-610 isoform O89084-2): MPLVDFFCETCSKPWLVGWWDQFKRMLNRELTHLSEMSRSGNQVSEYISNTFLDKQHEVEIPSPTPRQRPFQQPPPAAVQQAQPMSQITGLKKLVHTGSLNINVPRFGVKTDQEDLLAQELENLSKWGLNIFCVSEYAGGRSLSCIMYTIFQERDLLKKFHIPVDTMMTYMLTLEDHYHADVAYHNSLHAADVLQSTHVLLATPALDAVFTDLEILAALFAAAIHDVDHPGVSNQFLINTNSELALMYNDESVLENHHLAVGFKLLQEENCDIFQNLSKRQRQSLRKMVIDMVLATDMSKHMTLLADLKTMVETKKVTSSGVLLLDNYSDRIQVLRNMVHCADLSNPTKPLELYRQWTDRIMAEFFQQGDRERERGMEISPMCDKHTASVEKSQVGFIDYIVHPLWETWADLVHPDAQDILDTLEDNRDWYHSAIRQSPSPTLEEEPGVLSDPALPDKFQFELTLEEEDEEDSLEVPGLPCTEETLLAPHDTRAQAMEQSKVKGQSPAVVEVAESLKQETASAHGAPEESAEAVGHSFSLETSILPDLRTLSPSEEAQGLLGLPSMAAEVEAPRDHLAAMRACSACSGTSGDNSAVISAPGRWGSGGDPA
Method in brief: (§1)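 Fission yeast strains carrying mouse PDE4A1 or PDE4B3 and an fbp1-ura4 reporter were pregrown in EMM with 0.5–2.5 mM cAMP, then seeded at 0.5–4×10^5 cells/ml in 5FOA medium with compound. Growth was read as OD600 after 48 h at 30° C; composite Z scores were derived.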

[7] = target: T1, PDE7A; test: 5FOA growth assay in fission yeast strain expressing PDE7A; format: cell-based; set-up: targets used in the assays are full-length proteins (as opposed to simply the catalytic domain); expressed in transfected cells; host or cells: Schizosaccharomyces pombe, PDE gene integrated in place of cgs2; details: unit not given
Protocol: PDE inhibition allows growth in 5FOA medium as measured by optical density after 48 hours incubation at 30° C. Compound BC12 and six structural analogs were tested for growth stimulation.
Cells were pregrown in EMM medium [MP Biomedicals (Solon, Ohio), 3% glucose, filter-sterilized to avoid carmelization, which would introduce variability into the optical density of the medium] containing from 0 mM to 2.5 mM cAMP (or either 0.5 mM or 1.0 mM cGMP). This was to repress expression of the fbp1-ura4 reporter prior to exposure of cells to 5FOA medium. Cells were grown at 30° C. to exponential phase (approximately 10^7 cells/ml). Cells were collected by centrifugation and resuspended in 5FOA medium, and 25 μl were transferred to 384-well microtiter dishes (untreated, with flat clear bottoms) that had been pre-filled with 25 μl 5FOA medium and pre-pinned with 100 nl of compounds (stock solutions were generally 10 mM). Starting cell concentrations ranged from 0.5×10^5 to 4×10^5 cells/ml depending on the screening strain. […] Other positive control dishes contained 5 mM cAMP in the 5FOA medium for PDEs that lack appropriate control compounds. Cultures were grown for 48 hours at 30° C., sealed in an airtight container with moist paper towels to prevent evaporation. Optical densities (OD600) of cultures were measured using a microplate reader. Bioinformatic analysis of the results to determine composite Z scores was performed as previously described (1, 3).

[8] = target: T4, PDE4B3 (Mus musculus, UniProt Q8VBU5); test: 5FOA growth assay in fission yeast strain expressing PDE4B3; format: cell-based, Murine; details: 20 uM
T4 construct: targets used in the assays are full-length proteins (as opposed to simply the catalytic domain); expressed in transfected cells; host or cells: Schizosaccharomyces pombe, PDE gene integrated in place of cgs2
T4 sequence (Q8VBU5 1-721): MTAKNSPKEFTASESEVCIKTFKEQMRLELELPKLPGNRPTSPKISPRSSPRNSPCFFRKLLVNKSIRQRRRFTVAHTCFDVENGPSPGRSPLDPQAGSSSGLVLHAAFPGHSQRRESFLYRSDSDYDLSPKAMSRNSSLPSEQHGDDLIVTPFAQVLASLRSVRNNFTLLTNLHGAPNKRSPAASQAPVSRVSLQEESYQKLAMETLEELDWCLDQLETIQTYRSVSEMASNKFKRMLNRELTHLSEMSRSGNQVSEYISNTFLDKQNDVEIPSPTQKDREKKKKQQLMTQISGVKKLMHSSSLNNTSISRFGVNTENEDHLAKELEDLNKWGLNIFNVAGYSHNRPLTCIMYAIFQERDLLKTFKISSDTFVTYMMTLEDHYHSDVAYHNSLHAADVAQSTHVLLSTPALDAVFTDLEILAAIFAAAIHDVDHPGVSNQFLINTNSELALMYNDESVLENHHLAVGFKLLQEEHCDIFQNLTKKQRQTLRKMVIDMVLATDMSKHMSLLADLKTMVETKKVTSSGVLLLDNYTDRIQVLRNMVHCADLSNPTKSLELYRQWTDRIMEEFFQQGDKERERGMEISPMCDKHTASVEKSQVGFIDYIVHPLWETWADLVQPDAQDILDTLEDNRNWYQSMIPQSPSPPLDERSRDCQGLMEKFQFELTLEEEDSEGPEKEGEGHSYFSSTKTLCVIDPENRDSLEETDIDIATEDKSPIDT
Method in brief: as §1

[9] = tested on: PDE4A, PDE4B, PDE4D, PDE7A, PDE7B, PDE8A, PDE3A; test: Summary of PDE inhibitor profile; set-up: key to inhibitor class, Table 16: (1): Weak PDE7A inhibitor; (2): Strong PDE7A inhibitor; (3): Lillte/no activity under conditions used; (4): Weak PDE4A inhibitor
[10] = tested on: PDE2A, PDE4A, PDE4B, Cgs2; test: Parallel high throughput 5FOA growth screens of bioactive libraries; format: cell-based, murine PDEs; yeast Cgs2; details: 3,120 bioactive compounds, average 20 μM
Protocol: High throughput drug screens were carried out at the Broad Institute's Chemical Biology Program screening facility (Broad Institute, Cambridge, Mass.). Depending upon the strain, cultures were pregrown to exponential phase in EMM complete medium containing from 0.5 to 2.5 mM cAMP to repress fbp1-ura4 transcription. […] Starting cell concentrations ranged from 0.5×10^5 to 4×10^5 cells/ml depending on the screening strain. […] Other positive control dishes contained 5 mM cAMP in the 5FOA medium. Cultures were grown for 48 hours at 30° C., sealed in an airtight container with moist paper towels to prevent evaporation. Optical densities (OD600) of cultures were measured using a microplate reader. Bioinformatic analysis of the results to determine composite Z scores was performed as previously described^30, 31.

PDE4D, sequence (Q08499 whole entry): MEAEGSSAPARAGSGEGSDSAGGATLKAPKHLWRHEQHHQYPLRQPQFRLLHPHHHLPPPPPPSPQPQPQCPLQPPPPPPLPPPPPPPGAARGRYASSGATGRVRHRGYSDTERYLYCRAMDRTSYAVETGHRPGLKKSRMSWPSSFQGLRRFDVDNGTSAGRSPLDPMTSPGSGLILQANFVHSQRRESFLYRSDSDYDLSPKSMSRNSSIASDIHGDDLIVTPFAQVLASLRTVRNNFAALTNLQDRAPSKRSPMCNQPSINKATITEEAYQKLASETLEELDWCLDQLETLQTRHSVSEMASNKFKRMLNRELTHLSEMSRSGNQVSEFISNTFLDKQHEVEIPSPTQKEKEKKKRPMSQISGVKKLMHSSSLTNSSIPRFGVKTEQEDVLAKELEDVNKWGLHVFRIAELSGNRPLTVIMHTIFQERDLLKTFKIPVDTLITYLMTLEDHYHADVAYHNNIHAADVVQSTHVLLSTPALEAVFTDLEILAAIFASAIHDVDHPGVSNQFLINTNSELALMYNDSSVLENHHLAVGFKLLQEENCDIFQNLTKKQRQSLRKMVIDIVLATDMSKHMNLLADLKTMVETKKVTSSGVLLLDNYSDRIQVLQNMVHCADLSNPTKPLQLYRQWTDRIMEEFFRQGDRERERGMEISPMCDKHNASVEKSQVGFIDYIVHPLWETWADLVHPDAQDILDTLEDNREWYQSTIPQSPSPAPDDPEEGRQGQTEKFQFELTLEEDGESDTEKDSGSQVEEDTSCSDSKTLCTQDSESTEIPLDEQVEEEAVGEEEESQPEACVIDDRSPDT
PDE4A, sequence (P27815 whole entry, species assumed): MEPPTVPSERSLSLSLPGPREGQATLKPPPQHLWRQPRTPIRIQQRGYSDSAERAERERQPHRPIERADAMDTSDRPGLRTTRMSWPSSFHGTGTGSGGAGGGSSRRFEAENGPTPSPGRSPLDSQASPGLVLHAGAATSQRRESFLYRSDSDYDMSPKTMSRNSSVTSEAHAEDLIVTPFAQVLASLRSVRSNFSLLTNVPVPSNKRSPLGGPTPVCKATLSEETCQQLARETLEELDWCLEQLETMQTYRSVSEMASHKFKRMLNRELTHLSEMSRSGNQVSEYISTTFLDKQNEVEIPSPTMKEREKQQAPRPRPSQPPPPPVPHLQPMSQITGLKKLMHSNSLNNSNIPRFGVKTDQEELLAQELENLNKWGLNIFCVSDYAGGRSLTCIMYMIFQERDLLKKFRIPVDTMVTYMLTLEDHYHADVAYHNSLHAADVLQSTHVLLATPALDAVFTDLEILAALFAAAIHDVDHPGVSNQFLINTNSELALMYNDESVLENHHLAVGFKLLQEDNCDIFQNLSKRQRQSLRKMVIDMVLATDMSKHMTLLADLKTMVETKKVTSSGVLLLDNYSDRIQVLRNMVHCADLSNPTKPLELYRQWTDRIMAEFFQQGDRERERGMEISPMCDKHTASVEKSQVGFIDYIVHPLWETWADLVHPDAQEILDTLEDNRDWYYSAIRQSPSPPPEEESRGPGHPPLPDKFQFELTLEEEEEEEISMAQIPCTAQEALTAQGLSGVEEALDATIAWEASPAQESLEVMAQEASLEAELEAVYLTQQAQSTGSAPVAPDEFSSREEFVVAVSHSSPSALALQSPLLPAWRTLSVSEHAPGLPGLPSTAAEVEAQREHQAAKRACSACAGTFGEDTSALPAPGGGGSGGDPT
PDE4B, sequence (Q07343 whole entry, species assumed): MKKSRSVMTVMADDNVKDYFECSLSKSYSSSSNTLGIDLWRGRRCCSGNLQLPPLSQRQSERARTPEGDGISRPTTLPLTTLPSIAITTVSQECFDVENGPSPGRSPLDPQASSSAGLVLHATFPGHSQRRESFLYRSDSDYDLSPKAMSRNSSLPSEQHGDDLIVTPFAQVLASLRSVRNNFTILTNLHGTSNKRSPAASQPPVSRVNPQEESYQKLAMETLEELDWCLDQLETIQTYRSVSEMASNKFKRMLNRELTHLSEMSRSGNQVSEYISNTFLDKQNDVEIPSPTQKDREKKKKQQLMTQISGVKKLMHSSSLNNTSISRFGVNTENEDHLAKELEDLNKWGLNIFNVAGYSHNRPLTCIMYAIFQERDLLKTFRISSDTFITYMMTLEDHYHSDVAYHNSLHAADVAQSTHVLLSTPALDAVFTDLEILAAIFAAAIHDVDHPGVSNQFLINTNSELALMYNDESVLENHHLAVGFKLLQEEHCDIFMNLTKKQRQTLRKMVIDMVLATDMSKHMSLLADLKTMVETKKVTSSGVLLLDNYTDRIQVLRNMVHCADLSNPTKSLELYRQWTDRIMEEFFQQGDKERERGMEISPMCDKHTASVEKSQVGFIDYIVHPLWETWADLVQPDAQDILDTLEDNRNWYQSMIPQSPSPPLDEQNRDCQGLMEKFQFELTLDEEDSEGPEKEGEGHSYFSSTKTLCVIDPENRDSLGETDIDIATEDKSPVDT
T1 sequence (Q13946 whole entry, the tested form may be a part): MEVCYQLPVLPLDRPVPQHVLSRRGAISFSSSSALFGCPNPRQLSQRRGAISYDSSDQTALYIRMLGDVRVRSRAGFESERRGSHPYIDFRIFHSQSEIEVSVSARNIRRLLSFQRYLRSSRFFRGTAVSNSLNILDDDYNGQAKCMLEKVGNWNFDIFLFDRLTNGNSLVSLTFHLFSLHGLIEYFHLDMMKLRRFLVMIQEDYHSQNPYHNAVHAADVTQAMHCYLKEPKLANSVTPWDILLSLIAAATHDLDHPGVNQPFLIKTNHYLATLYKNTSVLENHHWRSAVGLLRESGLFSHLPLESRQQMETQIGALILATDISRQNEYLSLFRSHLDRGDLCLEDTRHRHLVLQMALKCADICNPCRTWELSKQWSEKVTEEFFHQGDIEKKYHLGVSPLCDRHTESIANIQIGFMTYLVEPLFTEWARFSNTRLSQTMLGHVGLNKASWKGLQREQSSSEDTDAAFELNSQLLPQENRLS
T2 sequence (Q08499 388-715): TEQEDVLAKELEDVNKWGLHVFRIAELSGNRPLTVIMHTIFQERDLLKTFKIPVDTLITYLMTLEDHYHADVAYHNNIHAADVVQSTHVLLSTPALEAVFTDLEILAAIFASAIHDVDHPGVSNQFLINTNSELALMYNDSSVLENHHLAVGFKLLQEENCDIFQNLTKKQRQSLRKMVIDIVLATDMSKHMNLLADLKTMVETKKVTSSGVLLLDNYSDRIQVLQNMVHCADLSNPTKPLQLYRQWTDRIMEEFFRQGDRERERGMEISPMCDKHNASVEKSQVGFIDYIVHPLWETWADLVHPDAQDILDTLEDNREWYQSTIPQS

remaining activity at 2 µM [1] [%]	remaining activity at 2 µM [2] [%]	remaining activity at 2 µM [3] [%]	remaining activity at 2 µM [4] [%]	SMILES	other results
46	68	69	90	Cc1nc(N2CCC(C)CC2)c2c(C)c(C(=O)Nc3c(F)cc(F)cc3Br)sc2n1 [Compound 58-5]	
39	30	26	88	Cc1nc(N2CCOCC2)c2c(C)c(C(=O)Nc3ccc(F)cc3F)sc2n1 [Compound 58-2]	
				N#Cc1sc2sc(C#N)c(-c3ccco3)c2c1N [BC30]	PDE4D catalytic domain, 2 uM cpm ([5]; 2 uM compound): 2583 cpm; In vitro activation of PDE4D catalytic domain, % activity ([5]; 2 micromolar compound, DMSO = 100): 139%
64	90	84	98	Cc1c(C(=O)Nc2ccc(F)cc2F)sc2ncnc(N3CCN(C)CC3)c12 [Compound 58-1]	
39	70	60	84	Cc1c(C(=O)Nc2ccc3c(c2)OCCO3)sc2ncnc(N3CCc4ccccc4C3)c12 [Compound 58-10]	Composite Z score, PDE4A1 [6]: 32.338
				N#Cc1sc2sc(C#N)c(-c3cccs3)c2c1N [Compound 30-2]	ED50, 7A [7]: ND ND active/plateaus ND ND; 1 Assay (20 uM) 4B3 [8]: −0.3999 ND ND ND ND; inhibitor class, Table 16 [9]: 1441, G04 KM03473 30-2 (1)
				Cc1cc2cc3c(C)cc(=O)oc3c(C)c2o1 [trioxsalen]	hit in high throughput screens (promotes 5FOA^R growth), in words [10]: identified
				CC(C)(C)c1c(C#N)sc2sc(C#N)c(N)c12 [Compound 30-4]	ED50, 7A [7]: ND ND weak activity ND ND; inhibitor class, Table 16 [9]: Maybridge: KM03484 30-4 (3)
47	54	26	74	Cc1nc(N2CCCCC2C)c2c(C)c(C(=O)Nc3ccc(F)cc3F)sc2n1 (centres unmarked) [Compound 58-4]	
